We go through 18 molecules from patent US20240342179A1, “TREATMENT OF CANCERS OR NEOPLASMS BY INHIBITING KIF15” (University of Kansas, priority 2023, published 2024).

What is called IC50 is the concentration needed to halve the response being measured. A higher IC50 goes with a need for much substance.

Assay [1] has as its target KIF15/TPX2 protein-protein interaction (GST-KIF15 amino acids 1149-1388, His-TPX2 amino acids 346-747) (Homo sapiens (Human), UniProt Q9NS87). As to the kind of experiment: KIF15/TPX2 AlphaScreen assay. The format is binding. The procedure:
The protocol designed peptides corresponding to the appropriate domains of KIF15 (amino acids 1149-1388, GST-tagged) and TPX2 (amino acids 346-747, His-tagged), for use in the AlphaScreen assay.
Next, the protocol screened a total of 191,852 compounds from the KU-HTS library. Analysis identified 584 hits that inhibited the primary AlphaScreen TPX2-KIF15 interaction to greater than three standard deviations plus the plate inhibition-median. The 584 hits were tested for assay interference in the AlphaScreen counter-screen using His-GST fusion protein. […] Of the 467 hits, 399 inhibited the TPX2-KIF15 interaction in a dose-response manner. Refinement was conducted until identifying the compounds provided herein.
To identify compounds that inhibit KIF15-mediated bipolar spindle formation, a process that is dependent on KIF15 binding to TPX2, the protocol designed a high-throughput screen using AlphaScreen Technology. Previous studies predicted that KIF15-TPX2 binding is mediated through a C-terminal coiled-coil domain on KIF15 (amino acids 1149-1388; amino acids 1359-1380) that binds the C-terminal region of TPX2 (amino acids 475-715; amino acids 680-747)^50, 52, 57, 58. Based on these observations, the protocol designed peptides corresponding to the appropriate domains of TPX2 (amino acids 346-747, His-tagged), and KIF15 (amino acids 1149-1388, GST-tagged) for use in the AlphaScreen assay.
Next, the protocol screened a total of 191,852 compounds from the KU-HTS small-molecule compound collection. The protocol identified 584 hits that inhibited the primary AlphaScreen TPX2-KIF15 interaction to greater than three standard deviations plus the plate inhibition-median. The 584 hits were tested for assay interference in the AlphaScreen assay counter-screen using His-GST fusion protein eliminating 117 compounds^99. […] Of the 467 hits, 399 inhibited the KIF15-TPX2 interaction in a concentration-dependent manner (FIGS. 3A-3D), rendering them candidates for follow-on validation in orthogonal and counter-screen assays. Informed by computational and medicinal chemistry assessment^100, the protocol selected a representative subset of approximately 200 of the 399 compound hits for additional characterization. Samples for 177 compounds from the subset of approximately 200 representative compounds were available for purchase. Samples of these 177 compounds were purchased for structure verification by NMR and further characterization. There was enough compound sample procured to complete follow-on screening for 166 of the 177 compounds.
For orientation: In Alpha technology, singlet oxygen from a donor bead excites a nearby acceptor bead.

A further assay has as its target GST-KIF15 1149-1388 (Homo sapiens (Human), UniProt Q9NS87). Description: NMR (STD-NMR / WaterLOGSY) versus GST-KIF15. Format: binding. The conditions noted are these: Hit / No. The protocol: WaterLOGSY NMR Spectra of Compounds A1 and B2 are provided.
Various cocktails of compounds were prepared to test for interactions. 100 μL DMSO-d6 was added to 3 mg of material. 26 cocktails of 6 compounds were prepared and 3 cocktails of 7 compounds were prepared. Then, 3 μM protein is added to 300 μM of the cocktails in 10% D2O buffer. Concentration of compounds is 10 mM each.
The 166 compound hit samples were further characterized for KIF15 or TPX2 binding using biophysical saturation transfer difference nuclear magnetic resonance (STD-NMR) and WaterLOGSY assays. The 166 compound samples were screened by STD-NMR for evidence of binding to GST-KIF15 or His-TPX2. In our assessment, no hits bound to His-TPX2. The protocol counter-screened potential hits against a His-GST peptide^99 and for aggregation using protein-free controls. Ultimately, three compound hits representing two compound chemotypes were validated to bind KIF15 by WaterLOGSY (FIGS. 4A-4B).

Sequence of GST-KIF15 1149-1388 (Q9NS87 1149-1388): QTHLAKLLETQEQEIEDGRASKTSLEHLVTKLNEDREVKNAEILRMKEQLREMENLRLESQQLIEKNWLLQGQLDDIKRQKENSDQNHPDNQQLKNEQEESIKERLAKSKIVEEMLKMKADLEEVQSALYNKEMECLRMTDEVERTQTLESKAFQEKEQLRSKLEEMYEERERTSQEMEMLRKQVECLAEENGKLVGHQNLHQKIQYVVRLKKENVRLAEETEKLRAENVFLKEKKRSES
Sequence of KIF15/TPX2 protein-protein interaction (GST-KIF15 amino acids 1149-1388, His-TPX2 amino acids 346-747) (Q9NS87 1149-1388): as above

On to `CCCN1CCN(c2ncc3c(n2)CCN(Cc2ccc(CC)cc2)C3)CC1` [Compound 1, 6-(4-ethylbenzyl)-2-(4-propylpiperazin-1-yl)-5,6,7,8-tetrahydropyrido[4,3-d]pyrimidine], for which the IC50 in assay [1] came out at 32.2 ± 4.6 µM; in the assay “TruHits counter-screen” it was 393 ± 13 µM. Further, at GST-KIF15 1149-1388, the “NMR Versus GST-KIF15” value is listed as “No”.

As for `CCCN1CCN(c2ncc3c(n2)CCN(Cc2cccc(F)c2F)C3)CC1` [Compound 2, 6-(2,3-difluorobenzyl)-2-(4-propylpiperazin-1-yl)-5,6,7,8-tetrahydropyrido[4,3-d]pyrimidine], the IC50 in assay [1] was 27.8 ± 4.7 µM; in “TruHits counter-screen”, 428 ± 38 µM. In addition, the “NMR Versus GST-KIF15” value at GST-KIF15 1149-1388 was “No”.

Regarding `CCCN1CCN(c2ncc3c(n2)CCN(Cc2ccc(OCC)c(OCC)c2)C3)CC1` [Compound 3, 6-(3,4-diethoxybenzyl)-2-(4-propylpiperazin-1-yl)-5,6,7,8-tetrahydropyrido[4,3-d]pyrimidine], the IC50 came out at 42.2 ± 3.3 µM in assay [1] and 510 ± 6 µM in the assay “TruHits counter-screen”. The “NMR Versus GST-KIF15” value on GST-KIF15 1149-1388 is “No”.

Take `CCCN1CCN(c2ncc3c(n2)CCN(Cc2ccc(Br)s2)C3)CC1` [Compound 4, 6-((5-bromothiophen-2-yl)methyl)-2-(4-propylpiperazin-1-yl)-5,6,7,8-tetrahydropyrido[4,3-d]pyrimidine]: the IC50 in assay [1] was found to be 23 ± 1.6 µM; in the assay “TruHits counter-screen”, 312 ± 79 µM. In addition, the “NMR Versus GST-KIF15” value on GST-KIF15 1149-1388 is “Hit”.

As for `CCCN1CCN(c2ncc3c(n2)CCN(Cc2cccc(Br)c2)C3)CC1` [Compound 5, 6-(3-bromobenzyl)-2-(4-propylpiperazin-1-yl)-5,6,7,8-tetrahydropyrido[4,3-d]pyrimidine], the IC50 in assay [1] amounted to 21 µM; in “TruHits counter-screen”, 287 ± 8 µM. Further, the “NMR Versus GST-KIF15” value at GST-KIF15 1149-1388 was “Hit”.

As to `CCCN1CCN(c2ncc3c(n2)CCN(Cc2ccc(Br)cc2)C3)CC1` [Compound 6, 6-(4-bromobenzyl)-2-(4-propylpiperazin-1-yl)-5,6,7,8-tetrahydropyrido[4,3-d]pyrimidine], the IC50 in assay [1] stood at 13.6 ± 1.2 µM; in “TruHits counter-screen” it was 628 ± 35 µM. Further, on GST-KIF15 1149-1388, the “NMR Versus GST-KIF15” value is recorded as “Hit”.

For `CCOc1ccc(CN2CCc3nc(N4CCN(CC)CC4)ncc3C2)cc1OCC` [Compound 7, 6-(3,4-diethoxybenzyl)-2-(4-ethylpiperazin-1-yl)-5,6,7,8-tetrahydropyrido[4,3-d]pyrimidine], the IC50 in assay [1] was found to be 2.8 ± 0.3 µM; in the assay “TruHits counter-screen”, 176 ± 9 µM. The “NMR Versus GST-KIF15” value on GST-KIF15 1149-1388 was “No”.

On to `CCN1CCN(c2ncc3c(n2)CCN(Cc2cc(OC)c(OC)cc2OC)C3)CC1` [Compound 8, 2-(4-ethylpiperazin-1-yl)-6-(2,4,5-trimethoxybenzyl)-5,6,7,8-tetrahydropyrido[4,3-d]pyrimidine], for which the IC50 in assay [1] amounted to 2.4 ± 0.1 µM; in the assay “TruHits counter-screen”, 120 ± 5.2 µM. Further, the “NMR Versus GST-KIF15” value at GST-KIF15 1149-1388 is “No”.

For `CCN1CCN(c2ncc3c(n2)CCN(Cc2ccc(OC)c(OC)c2OC)C3)CC1` [Compound 9, 2-(4-ethylpiperazin-1-yl)-6-(2,3,4-trimethoxybenzyl)-5,6,7,8-tetrahydropyrido[4,3-d]pyrimidine], the values for the IC50 (in assay [1]; in “TruHits counter-screen”) were 1.7 ± 0.1 µM and 196 ± 0.1 µM, respectively. For the same molecule, the “NMR Versus GST-KIF15” value at GST-KIF15 1149-1388 is given as “No”.

As for `CCN1CCN(c2ncc3c(n2)CCN(Cc2cc(OC)c(OC)c(OC)c2)C3)CC1` [Compound 11, 2-(4-ethylpiperazin-1-yl)-6-(3,4,5-trimethoxybenzyl)-5,6,7,8-tetrahydropyrido[4,3-d]pyrimidine], the half-inhibitory concentration (IC50) came out at 2.5 ± 0.8 µM in assay [1] and 556 ± 38 µM in the assay “TruHits counter-screen”. For the same molecule, the “NMR Versus GST-KIF15” value at GST-KIF15 1149-1388 was “No”.

`CCOc1ccc(CN2CCc3nc(N4CCN(CC)CC4)ncc3C2)cc1OC` [Compound 12, 6-(4-ethoxy-3-methoxybenzyl)-2-(4-ethylpiperazin-1-yl)-5,6,7,8-tetrahydropyrido[4,3-d]pyrimidine]: the results for the IC50 (in assay [1]; in the assay “TruHits counter-screen”) were 3.5 ± 0.5 µM and 305 ± 13 µM, respectively. In addition, at GST-KIF15 1149-1388, the “NMR Versus GST-KIF15” value is recorded as “No”.

For the molecule `CCCN1CCN(c2ncc3c(n2)CCN(Cc2ccc(OCC)c(OC)c2)C3)CC1` [Compound 13, 6-(4-ethoxy-3-methoxybenzyl)-2-(4-propylpiperazin-1-yl)-5,6,7,8-tetrahydropyrido[4,3-d]pyrimidine], the IC50 came to 44.8 ± 0.2 µM in assay [1] and 664 ± 103 µM in “TruHits counter-screen”. The “NMR Versus GST-KIF15” value on GST-KIF15 1149-1388 is given as “No”.

As to `CCCN1CCN(c2ncc3c(n2)CCN(Cc2cc(Br)cs2)C3)CC1` [Compound 15, 6-((4-bromothiophen-2-yl)methyl)-2-(4-propylpiperazin-1-yl)-5,6,7,8-tetrahydropyrido[4,3-d]pyrimidine], at GST-KIF15 1149-1388, the “NMR Versus GST-KIF15” value was “Hit”.

With `CCN1CCN(c2ncc3c(n2)CCN(Cc2ccc(F)cc2F)C3)CC1` [Compound 16, 6-(2,4-difluorobenzyl)-2-(4-ethylpiperazin-1-yl)-5,6,7,8-tetrahydropyrido[4,3-d]pyrimidine], at GST-KIF15 1149-1388, the “NMR Versus GST-KIF15” value is “No”.

On to `CCN1CCN(c2ncc3c(n2)CCN(Cc2cccc(OC)c2OC)C3)CC1` [Compound 17, 6-(2,3-dimethoxybenzyl)-2-(4-ethylpiperazin-1-yl)-5,6,7,8-tetrahydropyrido[4,3-d]pyrimidine], for which, on GST-KIF15 1149-1388, the “NMR Versus GST-KIF15” value is “No”.

As for `CCN1CCN(c2ncc3c(n2)CCN(Cc2cc(Br)cs2)C3)CC1` [Compound 18, 6-((4-bromothiophen-2-yl)methyl)-2-(4-ethylpiperazin-1-yl)-5,6,7,8-tetrahydropyrido[4,3-d]pyrimidine], the “NMR Versus GST-KIF15” value on GST-KIF15 1149-1388 is “Hit”.

For `CCN1CCN(c2ncc3c(n2)CCN(Cc2ccc(OC(C)C)c(OC)c2)C3)CC1` [Compound 19, 2-(4-ethylpiperazin-1-yl)-6-(4-isopropoxy-3-methoxybenzyl)-5,6,7,8-tetrahydropyrido[4,3-d]pyrimidine], the “NMR Versus GST-KIF15” value at GST-KIF15 1149-1388 is recorded as “No”.

For the molecule `CCOc1cccc(CN2CCc3nc(N4CCN(CC)CC4)ncc3C2)c1` [Compound 20, 6-(3-ethoxybenzyl)-2-(4-ethylpiperazin-1-yl)-5,6,7,8-tetrahydropyrido[4,3-d]pyrimidine], at GST-KIF15 1149-1388, the “NMR Versus GST-KIF15” value is given as “No”.
